Experimental data: patent US9375496B2, “Halogenated compounds for cancer imaging and treatment and methods for their use” (The University of British Columbia, priority 2013, dated 2016)
Like-named read-outs stand apart in the source and are kept apart here.

Columns and labels:
[1] = molecular target: T1, recombinant protein AR activation function-1 (AF1) (Homo sapiens, UniProt P10275); assay: Covalent binding to recombinant AR AF1 evaluated by SDS-PAGE
T1 sequence (P10275 144-486 limits assumed): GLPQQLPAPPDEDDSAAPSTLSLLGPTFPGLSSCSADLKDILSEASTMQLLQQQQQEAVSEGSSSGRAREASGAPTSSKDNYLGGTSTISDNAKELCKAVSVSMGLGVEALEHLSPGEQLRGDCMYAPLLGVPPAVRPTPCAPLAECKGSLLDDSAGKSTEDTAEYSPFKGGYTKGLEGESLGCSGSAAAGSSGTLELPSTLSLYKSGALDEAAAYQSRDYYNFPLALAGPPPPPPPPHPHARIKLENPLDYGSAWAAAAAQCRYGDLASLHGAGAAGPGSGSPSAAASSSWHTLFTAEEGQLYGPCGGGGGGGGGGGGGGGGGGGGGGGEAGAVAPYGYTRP
Method: Covalent binding experiments of 1d (also referred to as ^123I-EPI) to recombinant protein AR activation function-1 (AF1) was evaluated by SDS-PAGE (FIG. 15). After 6 h incubation at room temperature, 1d bound to the recombinant protein AR AF1. Less binding of 1d was observed when AR AF1 was pre-incubated with cold Z which is thought to bind to the same site as 1d. The SDS-PAGE gel was stained with Coomassie blue for loading control of the amount of AF1 protein.

AR = molecular target: T2, AR (Homo sapiens, UniProt P10275, T878A); assay: PSA(6.1 kb)-luciferase reporter assay in LNCaP cells (androgen-induced AR transcriptional activity); format: cell-based; conditions: LNCaP, PSA(6.1 kb)-luciferase, 1 h pre-treatment, R1881 1 nM 24 h
T2 construct: LNCaP cells with endogenous AR; endogenous in cells; host or cells: LNCaP
T2 sequence (P10275 1-920 T878A): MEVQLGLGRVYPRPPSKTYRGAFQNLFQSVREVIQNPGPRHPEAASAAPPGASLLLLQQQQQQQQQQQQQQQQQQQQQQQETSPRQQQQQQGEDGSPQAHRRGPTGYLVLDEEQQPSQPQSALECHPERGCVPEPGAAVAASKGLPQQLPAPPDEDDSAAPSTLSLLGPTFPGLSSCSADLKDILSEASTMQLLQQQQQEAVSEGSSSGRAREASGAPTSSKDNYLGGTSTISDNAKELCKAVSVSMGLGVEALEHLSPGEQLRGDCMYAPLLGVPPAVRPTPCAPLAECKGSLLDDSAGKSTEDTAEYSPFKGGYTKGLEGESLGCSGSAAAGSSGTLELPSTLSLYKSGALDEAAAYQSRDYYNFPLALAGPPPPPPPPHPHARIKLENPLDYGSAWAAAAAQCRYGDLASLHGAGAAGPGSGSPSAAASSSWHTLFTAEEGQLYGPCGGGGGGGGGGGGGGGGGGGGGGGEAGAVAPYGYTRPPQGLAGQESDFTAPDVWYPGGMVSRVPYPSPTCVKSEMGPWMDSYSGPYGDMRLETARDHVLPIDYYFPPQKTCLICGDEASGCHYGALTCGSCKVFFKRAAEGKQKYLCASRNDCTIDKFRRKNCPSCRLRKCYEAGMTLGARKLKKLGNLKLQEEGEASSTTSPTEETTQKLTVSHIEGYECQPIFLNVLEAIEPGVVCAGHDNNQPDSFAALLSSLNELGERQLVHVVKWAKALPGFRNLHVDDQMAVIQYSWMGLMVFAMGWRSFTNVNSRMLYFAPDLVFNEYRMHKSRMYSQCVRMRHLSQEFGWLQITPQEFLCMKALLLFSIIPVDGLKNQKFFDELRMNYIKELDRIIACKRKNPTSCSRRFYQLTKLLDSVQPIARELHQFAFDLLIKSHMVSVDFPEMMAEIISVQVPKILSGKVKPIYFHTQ
Method: The PSA-luciferase (6.1 kb) reporter contains functional AREs to which AR binds in response to androgen to induce luciferase activity. LNCaP cells were transfected with the PSA(6.1 kb)-luciferase reporter for 24 h, and then treated with indicated concentration of 8d (also referred as EPI-iodide or iodinated EPI) with synthetic androgen, R1881 (1 nM) for 24 h. After 24 h of incubation with R1881, the cells were harvested, and relative luciferase activities were determined (FIG. 1A). To determine the IC50, treatments were normalized to the predicted maximal activity induction (in the absence of test compounds, vehicle only) (FIG. 1B).
To measure effect on AR, after the LNCaP cells were transfected with the PSA(6.1 kb)-luciferase reporter for 24 h, they were then treated with DMSO, 5 μM MDV3100, 25 μM Z (also referred to as EPI-002 or EPI), or 1.9 μM 8d with or without 1 nM R1881 for 24 h (FIG. 2A).
LNCaP cells were transiently transfected with PSA (6.1 kb)-luciferase for 24 h prior to pre-treatment with compounds of the invention (e.g., compounds 9d, 10d, 11d) ranging in concentration from 62.5 ng/ml to 1.5 ug/ml for 1 hour before the addition of vehicle, or synthetic androgen, R1881 (1 nM) to induce luciferase production. After 24 h of incubation with R1881, the cells were harvested, and relative luciferase activities were determined. To determine the IC50, treatments were normalized to the predicted maximal activity induction (in the absence of test compounds, vehicle only) (FIG. 1B).

[2] = Trial 1, read-out: IC50 Trial 1
[3] = Trial 2, read-out: IC50 Trial 2
[4] = Trial 3, read-out: IC50 Trial 3
[5] = Trial 4, read-out: IC50 Trial 4
[6] = average of 4 trials, read-out: IC50 Average

Row | SMILES | covalent binding to recombinant protein AR AF1 ([1]; 6 h incubation at room temperature) | binding to AR AF1 after pre-incubation with cold Z ([1]; AR AF1 pre-incubated with cold Z) | IC50 (AR; [2]) [µM] | IC50 (AR; [3]) [µM] | IC50 (AR; [4]) [µM] | IC50 (AR; [5]) [µM] | IC50 (AR; [6]) [µM]
1 | CC(C)(c1ccc(OC[C@H](O)CO)cc1)c1ccc(OC[C@H](O)CCl)c([123I])c1 [Compound 1d, (R)-3-(4-(2-(4-((S)-3-chloro-2-hydroxypropoxy)-3- ^123iodophenyl)propan-2-yl)phenoxy)propane-1,2-diol] | bound | Less binding | – | – | – | – | –
2 | CC(C)(c1ccc(OC[C@H](O)CO)cc1)c1ccc(OC[C@H](O)CCl)c(Br)c1 [Compound 9d, (R)-3-(4-(2-(3-bromo-4-((S)-3-chloro-2-hydroxypropoxy)phenyl)propan-2-yl)phenoxy)propane-1,2-diol] | – | – | 2.07 | 2.74 | 2.96 | 3.36 | 2.78
3 | CC(C)(c1ccc(OC[C@H](O)CO)cc1)c1ccc(OC[C@H](O)CCl)c(Cl)c1 [Compound 10d, (R)-3-(4-(2-(3-chloro-4-((S)-3-chloro-2-hydroxypropoxy)phenyl)propan-2-yl)phenoxy)propane-1,2-diol] | – | – | 2.53 | 2.3 | 2.81 | 2.84 | 2.62
4 | CC(C)(c1ccc(OC[C@H](O)CO)cc1)c1ccc(OC[C@H](O)CCl)c(F)c1 [Compound 11d, (R)-3-(4-(2-(4-((S)-3-chloro-2-hydroxypropoxy)-3-fluorophenyl)propan-2-yl)phenoxy)propane-1,2-diol] | – | – | 5.95 | 3.6 | 7.33 | 5.4 | 5.57
